# Article PMC9387934, “Randomized single oral dose phase 1 study of safety, tolerability, and pharmacokinetics of Iminosugar UV-4 Hydrochloride (UV-4B) in healthy subjects” (PLoS Neglected Tropical Diseases, 2022)
# Where a name gives a salt, the structure may show the parent alone.
# Assays:
# [1] = design: method as in Investigator’s Brochure (IB); details: dogs, ref Investigator’s Brochure (IB), cited from earlier work
# [2] = Phase 1a single ascending dose study: UV-4 in pooled urine, urinary recovery and renal clearance; type: in vivo, human; details: for CL renal: human, po; for Cumulative Amount Ae(0-last): corresponds to Ae(0-48); for Cumulative Percent fe(0-last): corresponds to fe(0-48)
# Protocol: Serial blood samples were collected at pre-dose (0 hour) and 0.5, 1, 1.5, 2, 2.5, 3, 4, 6, 9, 12, 18, 24, 36, and 48 hours post-dose for assessment of UV-4 concentrations in plasma. Pooled urine samples were collected at pre-dose (-12 to 0 hour) and from 0 to 6, 6 to 12, 12 to 24, and 24 to 48 hours post-dose for assessment of UV-4 concentrations in urine. Plasma and urine concentrations of UV-4 were determined by means of validated, sensitive, and specific high-performance liquid chromatography/tandem mass spectrometric (LC-MS/MS) assays. UV-4 plasma and urine concentrations and PK parameters were listed and summarized by dose, as appropriate. Only the 48 subjects who received active investigational product were included in the PK analysis population.
# 8.2.3 Specimen Preparation, Handling, and Shipping
# 8.2.3.1 Instructions for Specimen Preparation, Handling, and Storage
# The collected PK blood samples (2 mL) will be placed on ice after blood draw, and within 1 hour centrifuged at room temperature at approximately 3000 revolutions per minute for 15 minutes. Plasma will then be harvested and split into 4 aliquots of approximately 250 μ L and stored frozen at -20°C until shipped.
# Urine samples (approximately 10 mL) for determination of UV-4 concentrations in urine will be taken from the total volume provided during each collection period. The total volume of each urine collection will be recorded along with the start/stop time for each urine collection interval.
# Analysis of plasma and urine for UV-4 will be performed by the qualified bioanalytical laboratory, Quintiles Bioservices, Inc., Ithaca, New York 14950. Instructions for the proper preparation, handling, storage and shipping of specimens will be provided separately in a study-specific laboratory manual (i.e., Biopacket).
# 8.2.3.2 Specimen Shipment […]
# The following single-dose urine PK parameters will be estimated from the UV-4 urine concentration-time data collected, as appropriate:
# Ae Amount of UV-4 excreted in urine unchanged, calculated for each collection interval and cumulatively across intervals fe Fraction of UV-4 excreted in urine unchanged, calculated for each collection interval and cumulatively across intervals […]
# Additional UV-4 PK parameters may be calculated at the discretion of the […]
# Plasma concentrations and plasma and urine PK parameters will be summarized by treatment using descriptive statistics, as appropriate. Figures for the arithmetic mean (and SD) concentration-time data will be presented for all doses on both a linear and semi-logarithmic scale. Individual concentration-time data will be graphically presented on linear and semi-logarithmic scales. Scatter plots of individual and geometric mean PK parameters versus dose will be presented. Additional graphical presentations of PK data may be added at the discretion of the PK analyst.
# Dose proportionality of Cmax, AUC(0-last), and AUC(0-inf) will be assessed graphically and statistically using the power model approach with the logarithm of PK parameters AUC(0-inf) and Cmax as the dependent variables and the logarithm of the dose as the independent variable: ([AUC(0-inf), AUC(0-last), or Cmax]=α *doseβ).
# 11.4.7 Deviation from Original Analysis Plan
# Deviations from the formal statistical analysis plan will be noted in the final Clinical Study
# [3] = urine, Cohort 1, 3 mg single oral dose, Ar Mean
# [4] = urine, Cohort 1, 3 mg single oral dose, Median
# [5] = urine, Cohort 2, 10 mg single oral dose, Ar Mean
# [6] = urine, Cohort 2, 10 mg single oral dose, Median
# [7] = urine, Cohort 3, 30 mg single oral dose, Ar Mean
# [8] = urine, Cohort 3, 30 mg single oral dose, Median
# [9] = urine, Cohort 4, 90 mg single oral dose, Ar Mean
smiles,measurement,setting,value
"COCCCCCCCCCN1C[C@H](O)[C@@H](O)[C@H](O)[C@H]1CO [UV-4B, N-(9’-methoxynonyl)-1-deoxynojirimycin hydrochloride]",Finding at the highest dose,[1]; 150 mg/kg/dose TID for seven days,severe GI effects
same,Finding at 10 mg/kg/dose TID,[1]; 10 mg/kg,diarrhea was still apparent
same,fe(0-last),"[2]; 3 mg single oral dose, Ar Mean",39.8%
same,CL renal,"[2]; both sexes, urine and plasma, 3 mg, 3 mg single oral dose, Ar Mean",242 mL/min
same,CL renal,"[2]; both sexes, urine and plasma, 3 mg, 3 mg single oral dose, Geo Mean",238 mL/min
same,CL renal,"[2]; both sexes, urine and plasma, 1000 mg, 1000 mg single oral dose, Ar Mean",198 mL/min
same,CL renal,"[2]; both sexes, urine and plasma, 1000 mg, 1000 mg single oral dose, Geo Mean",195 mL/min
same,CL renal,"[2]; both sexes, urine, 10 mg, 10 mg single oral dose, Geo Mean",190 mL/min
same,CL renal,"[2]; both sexes, urine, 30 mg, 30 mg single oral dose, Ar Mean",210 mL/min
same,CL renal,"[2]; both sexes, urine, 30 mg, 30 mg single oral dose, Geo Mean",208 mL/min
same,CL renal,"[2]; both sexes, urine, 90 mg, 90 mg single oral dose, Ar Mean",228 mL/min
same,CL renal,"[2]; both sexes, urine, 90 mg, 90 mg single oral dose, Geo Mean",227 mL/min
same,CL renal,"[2]; both sexes, urine, 180 mg, 180 mg single oral dose, Ar Mean",233 mL/min
same,CL renal,"[2]; both sexes, urine, 180 mg, 180 mg single oral dose, Geo Mean",232 mL/min
same,CL renal,"[2]; both sexes, urine, 360 mg, 360 mg single oral dose, Ar Mean",235 mL/min
same,CL renal,"[2]; both sexes, urine, 360 mg, 360 mg single oral dose, Geo Mean",228 mL/min
same,CL renal,"[2]; both sexes, urine, 720 mg, 720 mg single oral dose, Ar Mean",185 mL/min
same,CL renal,"[2]; both sexes, urine, 720 mg, 720 mg single oral dose, Geo Mean",182 mL/min
same,CL renal,"[2]; urine, 10 mg, 10 mg single oral dose, Ar Mean",195 mL/min
same,By-Interval Amount Ae(0-6),[2]; [3],0.607 mg
same,By-Interval Amount Ae(6-12),[2]; [3],0.215 mg
same,By-Interval Amount Ae(12-24),[2]; [3],0.202 mg
same,By-Interval Amount Ae(24-48),[2]; [3],0.170 mg
same,Cumulative Amount Ae(0-12),[2]; [3],0.822 mg
same,Cumulative Amount Ae(0-24),[2]; [3],1.02 mg
same,Cumulative Amount Ae(0-last),[2]; [3],1.19 mg
same,By-Interval Amount Ae(0-6),[2]; [4],0.624 mg
same,By-Interval Amount Ae(6-12),[2]; [4],0.216 mg
same,By-Interval Amount Ae(12-24),[2]; [4],0.230 mg
same,By-Interval Amount Ae(24-48),[2]; [4],0.173 mg
same,By-Interval Percent fe(0-6),[2]; [4],20.8%
same,By-Interval Percent fe(6-12),[2]; [4],7.19%
same,By-Interval Percent fe(12-24),[2]; [4],7.65%
same,By-Interval Percent fe(24-48),[2]; [4],5.75%
same,Cumulative Amount Ae(0-12),[2]; [4],0.892 mg
same,Cumulative Amount Ae(0-24),[2]; [4],1.08 mg
same,Cumulative Percent fe(0-12),[2]; [4],29.7%
same,Cumulative Percent fe(0-24),[2]; [4],36.0%
same,Cumulative Amount Ae(0-last),[2]; [4],1.23 mg
same,Cumulative Percent fe(0-last),[2]; [4],40.9%
same,By-Interval Amount Ae(0-6),[2]; [5],2.67 mg
same,By-Interval Amount Ae(6-12),[2]; [5],0.859 mg
same,By-Interval Amount Ae(12-24),[2]; [5],0.608 mg
same,By-Interval Amount Ae(24-48),[2]; [5],0.503 mg
same,By-Interval Percent fe(0-6),[2]; [5],26.7%
same,By-Interval Percent fe(6-12),[2]; [5],8.59%
same,By-Interval Percent fe(12-24),[2]; [5],6.08%
same,By-Interval Percent fe(24-48),[2]; [5],5.03%
same,Cumulative Amount Ae(0-12),[2]; [5],3.53 mg
same,Cumulative Amount Ae(0-24),[2]; [5],4.13 mg
same,Cumulative Percent fe(0-12),[2]; [5],35.3%
same,Cumulative Percent fe(0-24),[2]; [5],41.3%
same,Cumulative Amount Ae(0-last),[2]; [5],4.64 mg
same,Cumulative Percent fe(0-last),[2]; [5],46.4%
same,By-Interval Amount Ae(0-6),[2]; [6],2.77 mg
same,By-Interval Amount Ae(6-12),[2]; [6],0.883 mg
same,By-Interval Amount Ae(12-24),[2]; [6],0.635 mg
same,By-Interval Amount Ae(24-48),[2]; [6],0.503 mg
same,By-Interval Percent fe(0-6),[2]; [6],27.7%
same,By-Interval Percent fe(6-12),[2]; [6],8.83%
same,By-Interval Percent fe(12-24),[2]; [6],6.35%
same,By-Interval Percent fe(24-48),[2]; [6],5.03%
same,Cumulative Amount Ae(0-12),[2]; [6],3.71 mg
same,Cumulative Amount Ae(0-24),[2]; [6],4.34 mg
same,Cumulative Percent fe(0-12),[2]; [6],37.1%
same,Cumulative Percent fe(0-24),[2]; [6],43.4%
same,Cumulative Amount Ae(0-last),[2]; [6],4.82 mg
same,Cumulative Percent fe(0-last),[2]; [6],48.2%
same,By-Interval Amount Ae(0-6),[2]; [7],10.6 mg
same,By-Interval Amount Ae(6-12),[2]; [7],2.45 mg
same,By-Interval Amount Ae(12-24),[2]; [7],1.61 mg
same,By-Interval Amount Ae(24-48),[2]; [7],0.887 mg
same,By-Interval Percent fe(0-6),[2]; [7],35.3%
same,By-Interval Percent fe(6-12),[2]; [7],8.16%
same,By-Interval Percent fe(12-24),[2]; [7],5.36%
same,By-Interval Percent fe(24-48),[2]; [7],2.96%
same,Cumulative Amount Ae(0-12),[2]; [7],13.0 mg
same,Cumulative Amount Ae(0-24),[2]; [7],14.6 mg
same,Cumulative Percent fe(0-12),[2]; [7],43.4%
same,Cumulative Percent fe(0-24),[2]; [7],48.8%
same,Cumulative Amount Ae(0-last),[2]; [7],15.5 mg
same,Cumulative Percent fe(0-last),[2]; [7],51.7%
same,By-Interval Amount Ae(0-6),[2]; [8],10.5 mg
same,By-Interval Amount Ae(6-12),[2]; [8],2.47 mg
same,By-Interval Amount Ae(12-24),[2]; [8],1.55 mg
same,By-Interval Amount Ae(24-48),[2]; [8],0.96 mg
same,By-Interval Percent fe(0-6),[2]; [8],34.9%
same,By-Interval Percent fe(6-12),[2]; [8],8.24%
same,By-Interval Percent fe(12-24),[2]; [8],5.14%
same,By-Interval Percent fe(24-48),[2]; [8],3.20%
same,Cumulative Amount Ae(0-12),[2]; [8],12.9 mg
same,Cumulative Amount Ae(0-24),[2]; [8],14.6 mg
same,Cumulative Percent fe(0-12),[2]; [8],43.0%
same,Cumulative Percent fe(0-24),[2]; [8],48.7%
same,Cumulative Amount Ae(0-last),[2]; [8],15.5 mg
same,Cumulative Percent fe(0-last),[2]; [8],51.7%
same,By-Interval Amount Ae(0-6),[2]; [9],38.1 mg
same,By-Interval Amount Ae(6-12),[2]; [9],6.05 mg
same,By-Interval Amount Ae(12-24),[2]; [9],3.89 mg
same,By-Interval Amount Ae(24-48),[2]; [9],1.61 mg
same,By-Interval Percent fe(0-6),[2]; [9],42.2%
same,By-Interval Percent fe(6-12),[2]; [9],6.72%
same,By-Interval Percent fe(12-24),[2]; [9],4.32%
same,By-Interval Percent fe(24-48),[2]; [9],1.79%
same,Cumulative Amount Ae(0-12),[2]; [9],44.1 mg
same,Cumulative Amount Ae(0-24),[2]; [9],48.0 mg
same,Cumulative Percent fe(0-12),[2]; [9],49.0%
same,Cumulative Percent fe(0-24),[2]; [9],53.3%
same,Cumulative Amount Ae(0-last),[2]; [9],49.6 mg
same,Cumulative Percent fe(0-last),[2]; [9],55.1%
same,By-Interval Amount Ae(0-6),"[2]; urine, Cohort 4, 90 mg single oral dose, Median",39.3 mg
